This note sets out measurements from patent US12503448B2, “Antibacterial and antiparasitic quinoxaline-2,3-diamine derivatives” (University College Cardiff Consultants Limited, priority 2019, dated 2025).

In one data set the test system is B. cereus. The data set is described as follows: In vitro antibacterial activity. It is filed as cell-based. Particulars: Bacillus cereus.
A further data set has as its system S. mansoni schistosomula. Put plainly: 72 hours schistosomula drug screen. Format: cell-based, Schistosoma mansoni. The note with it: for Selectivity Index Schistosomula: HepG2 CC50 over schistosomula EC50; for EC50: Schistosoma mansoni. In outline:
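Newly transformed S. mansoni schistosomula were screened for 72 h in 384-well format. Phenotype and motility were scored, and a schistosomula average was derived.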

In the next data set the test system is MRSA ATCC 33591. The data set is described as follows: In vitro antibacterial activity. It is filed as cell-based. The note with it: Staphylococcus aureus.
In the next data set the test system is S. mansoni adult worms. Put plainly: Adult worm drug screen (WHO scoring, WormassayGP2). Format: cell-based, Schistosoma mansoni. Particulars: for Selectivity Index Adult: HepG2 CC50 over adult worm EC50; for EC50: Schistosoma mansoni, adult worms. In outline: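 Adult worms perfused from MF-1 mice 7 weeks after infection with 180 cercariae. Motility after drug exposure scored on the WHO-TDR 0–4 microscopic scale (0 = no movement, 4 = normal), checked by image-based motion analysis. Deposited eggs counted.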

The next data set deals with S. aureus ATCC 29213. The data set is described as follows: In vitro antibacterial activity. The note with it: Staphylococcus aureus, ATCC29213. It is filed as cell-based.
Data set [1] is described as follows: Metabolic stability in mouse liver microsomes. The note with it: for microsomal CLint at 1 μM: liver microsomes; for half-life at 1 μM: microsomes. Background: Liver microsomes are a subcellular fraction often used to study metabolism.
The nature of a further data set: MTT assay on HepG2 cells. Format: cell-based. Particulars: human. The method, then: MTT Assay on HepG2 Cells Human Hepatocyte Carcinoma (HepG2) cells (85011430, Sigma Aldrich) were used to assess the overt toxicity of these anti-infective compounds. […] A negative control (1% v/v Triton X-100; X100, Sigma-Aldrich) was also included in each screen. After addition of compounds, each plate was then incubated for a further 20 hrs before application of MTT reagent (prepared as described in Nur-[…], Bari A, Ghabbour […], Hoffmann […] Nat Prod. 2017 Jun. 23; 80(6):1900-1908 for the assessment of compound cytotoxicity using the MTT assay. […] The plate was then further incubated for 4 hrs. After incubation, each plate was blotted dry under the laminar flow to remove the MTT treated culture media. A 100 μl DMSO: isopropanol (1:1) solution was then added to each well and the plate was then subsequently incubated for 10 minutes at 37° C. Following incubation, each plate was shaken again and then absorbance measured at 570 nm. The absorbance reading was corrected based on the average value of the wells used as blank (no cells). […] The data obtained in this manner is shown in Table 1 in the columns labelled “HepG2”. […] The selectivity indexes for schistosomula and adult worms are shown in the final two columns in Table 1.
(Formazan colour is commonly taken as a measure of viable cells.)

Data set [2] in a line: Semi thermodynamic solubility. The note with it: thermodynamic from solid.
[3] abbreviates: schistosomula, 72 hour culture, read-out: EC50 Motility.
The mark [4] stands for this setting: schistosomula, 72 hour culture, read-out: EC50 Phenotype.
[5] abbreviates: S. aureus ATCC 29213, read-out: MIC90.
The mark [6] stands for this setting: average of phenotype and motility, read-out: EC50 Schistosomula average.

Each structure is given as a SMILES string. ≈ marks a conversion by molar mass, not a printed value. Read-outs that look alike come from different tables or passages of the source. A value given as a limit tells only on which side of the number the result lay.

By MIC90 is commonly meant an inhibitory concentration at the 90% level, which refers to growth in some studies and to a panel of isolates in others. In general, EC50 refers to the midpoint of the concentration-response curve. Turning to `O=[N+]([O-])c1ccc2nc(Nc3cccc(Cl)c3)c(Nc3cccc(Cl)c3)nc2c1` [Compound 5, N^2, N^3-bis(3-chlorophenyl)-6-nitroquinoxaline-2,3-diamine], the MIC90 is 125 µg/mL (≈ 293 µM) against B. cereus, 3.91 µg/mL (≈ 9.17 µM) against MRSA ATCC 33591 and under 3.91 µg/mL with S. aureus ATCC 29213 (setting [5]). Also, the “Selectivity Index Schistosomula” value in the data set on S. mansoni schistosomula was determined as 5. Further, the EC50 in the data set on S. mansoni schistosomula (setting [3]) was 1300 nM; in the data set on S. mansoni schistosomula (setting [4]), 1220 nM; in the data set on S. mansoni adult worms, 12 nM. Further, the “Selectivity Index Adult” value in the data set with S. mansoni adult worms is 568.
Take `O=[N+]([O-])c1ccc2nc(Nc3ccc(F)c(C(F)(F)F)c3)c(Nc3ccc(F)c(C(F)(F)F)c3)nc2c1` [Compound 7, N^2, N^3-bis(4-fluoro-3-(trifluoromethyl)phenyl)-6-nitroquinoxaline-2,3-diamine]: the MIC90 against B. cereus was 125 µg/mL (≈ 236 µM); with MRSA ATCC 33591 it was under 3.91 µg/mL; with S. aureus ATCC 29213 it was 1.95 µg/mL (≈ 3.68 µM). In addition, the “Selectivity Index Schistosomula” value in the data set with S. mansoni schistosomula stood at 14. The EC50 is 540 nM in the data set with S. mansoni schistosomula (setting [3]), 540 nM with S. mansoni schistosomula (setting [4]) and 11 nM in the data set with S. mansoni adult worms. In addition, the “Selectivity Index Adult” value with S. mansoni adult worms is recorded as 705.
What is called microsomal CLint is the rate of metabolic loss divided by the concentration. As a reminder, the half-life is the time needed for the level to fall by half in the phase considered. A low value points to rapid decline. As usually defined, the CC50 is the concentration giving 50% cytotoxicity. A high value points to better tolerance by the cells. In general, thermodynamic solubility refers to the concentration in solution at equilibrium with solid. As to `O=[N+]([O-])c1ccc2nc(Nc3ccc(C(F)(F)F)cc3)c(Nc3ccc(C(F)(F)F)cc3)nc2c1` [Compound 11, 6-nitro-N^2, N^3-bis(4-(trifluoromethyl)phenyl)quinoxaline-2,3-diamine], the microsomal CLint at 1 μM in data set [1] was found to be 0.134 µL/min/mg. In data set [1], this molecule came in with a half-life at 1 μM of 172 h. The molecule also gave a CC50 at 24 h in “MTT assay on HepG2 cells” of 15600 nM. Further, the MIC90 with B. cereus (B. cereus, read-out: MIC90) is under 62.5 µg/mL; with MRSA ATCC 33591, under 3.91 µg/mL; with S. aureus ATCC 29213 (setting [5]), 0.98 µg/mL (≈ 1.99 µM). Besides, the “Selectivity Index Schistosomula” value in the data set on S. mansoni schistosomula is given as 33. In addition, the 50% effective concentration (EC50) with S. mansoni schistosomula (setting [6]) is 480 nM; in the data set with S. mansoni schistosomula (setting [3]), 530 nM; with S. mansoni schistosomula (setting [4]), 420 nM; with S. mansoni adult worms, 6.7 nM. The “Selectivity Index Adult” value with S. mansoni adult worms is on record as 2320. Also, the thermodynamic solubility in data set [2] was found to be 32.8 µM (≈ 16.2 µg/mL).
One may read the fraction unbound as free concentration divided by total concentration. A low value points to little free substance. As for `COc1ccc(Nc2nc3ccc([N+](=O)[O-])cc3nc2Nc2ccc(OC)c(C(F)(F)F)c2)cc1C(F)(F)F` [Compound 12, N^2, N^3-bis(4-methoxy-3-(tritluoromethyl)phenyl)-6-nitroquinoxaline-2,3-diamine], in [1], the microsomal CLint at 1 μM was 10.8 µL/min/mg. This molecule displayed a half-life at 1 μM in data set [1] of 2.13 h. Also, the MIC90 is under 62.5 µg/mL in the data set with B. cereus (B. cereus, read-out: MIC90); 31.2 µg/mL (≈ 56.5 µM) in the data set on MRSA ATCC 33591; 62.5 µg/mL (≈ 113 µM) with S. aureus ATCC 29213 (setting [5]). In addition, in the data set on S. mansoni schistosomula, the “Selectivity Index Schistosomula” value is given as 9. The EC50 in the data set on S. mansoni schistosomula (setting [6]) was 610 nM; in the data set on S. mansoni schistosomula (setting [3]), 650 nM; in the data set with S. mansoni schistosomula (setting [4]) it was 570 nM; with S. mansoni adult worms it was 8.5 nM. Besides, the “Selectivity Index Adult” value in the data set on S. mansoni adult worms is 664. In addition, in the data set “Plasma protein binding”, the fraction unbound came to 0.0134. The solubility (thermodynamic) in data set [2] came out at 4.09 µM (≈ 2.26 µg/mL).
